Test results: PMC6199744, “Development of Chemical Proteomics for the Folateome and Analysis of the Kinetoplastid Folateome” (ACS Infectious Diseases, 2018)
Like-named read-outs stand apart in the source and are kept apart here.

Legend:
Assay type in all cases: binding
[1] = biological target: T1, HeLa cell extract proteins (Homo sapiens, UniProt O00299)
T1 construct: endogenous in cells; host or cells: HeLa cell extract

[2] = biological target: T2, HeLa cell extract proteins (Homo sapiens, UniProt Q14697)
T2 construct: endogenous in cells; host or cells: HeLa cell extract
T2 sequence (Q14697 29-944): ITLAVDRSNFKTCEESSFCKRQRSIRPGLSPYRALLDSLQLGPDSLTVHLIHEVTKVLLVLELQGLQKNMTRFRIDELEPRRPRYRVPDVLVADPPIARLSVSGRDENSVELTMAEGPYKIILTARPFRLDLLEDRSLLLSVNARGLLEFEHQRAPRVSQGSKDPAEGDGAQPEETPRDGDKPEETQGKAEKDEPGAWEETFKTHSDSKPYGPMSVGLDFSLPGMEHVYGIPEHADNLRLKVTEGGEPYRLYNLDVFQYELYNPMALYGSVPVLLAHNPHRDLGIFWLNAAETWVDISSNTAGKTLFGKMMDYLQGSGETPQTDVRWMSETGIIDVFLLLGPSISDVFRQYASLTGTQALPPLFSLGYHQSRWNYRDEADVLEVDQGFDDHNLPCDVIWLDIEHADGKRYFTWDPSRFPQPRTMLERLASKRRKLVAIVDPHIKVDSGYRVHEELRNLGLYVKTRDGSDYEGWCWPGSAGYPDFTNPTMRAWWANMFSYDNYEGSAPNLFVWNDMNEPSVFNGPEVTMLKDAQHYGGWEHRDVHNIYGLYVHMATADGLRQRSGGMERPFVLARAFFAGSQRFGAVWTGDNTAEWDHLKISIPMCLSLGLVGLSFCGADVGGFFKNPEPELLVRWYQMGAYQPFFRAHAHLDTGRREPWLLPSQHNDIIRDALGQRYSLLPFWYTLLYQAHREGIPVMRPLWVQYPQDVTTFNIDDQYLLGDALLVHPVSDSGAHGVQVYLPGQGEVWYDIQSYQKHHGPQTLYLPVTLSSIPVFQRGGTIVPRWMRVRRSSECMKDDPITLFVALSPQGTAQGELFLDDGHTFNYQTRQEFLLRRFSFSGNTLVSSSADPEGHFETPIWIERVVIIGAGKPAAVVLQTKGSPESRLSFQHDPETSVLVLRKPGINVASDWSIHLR

[3] = biological target: T3, HeLa cell extract proteins (Homo sapiens, UniProt Q14CZ7)
T3 construct: endogenous in cells; host or cells: HeLa cell extract
T3 sequence (Q14CZ7 1-662): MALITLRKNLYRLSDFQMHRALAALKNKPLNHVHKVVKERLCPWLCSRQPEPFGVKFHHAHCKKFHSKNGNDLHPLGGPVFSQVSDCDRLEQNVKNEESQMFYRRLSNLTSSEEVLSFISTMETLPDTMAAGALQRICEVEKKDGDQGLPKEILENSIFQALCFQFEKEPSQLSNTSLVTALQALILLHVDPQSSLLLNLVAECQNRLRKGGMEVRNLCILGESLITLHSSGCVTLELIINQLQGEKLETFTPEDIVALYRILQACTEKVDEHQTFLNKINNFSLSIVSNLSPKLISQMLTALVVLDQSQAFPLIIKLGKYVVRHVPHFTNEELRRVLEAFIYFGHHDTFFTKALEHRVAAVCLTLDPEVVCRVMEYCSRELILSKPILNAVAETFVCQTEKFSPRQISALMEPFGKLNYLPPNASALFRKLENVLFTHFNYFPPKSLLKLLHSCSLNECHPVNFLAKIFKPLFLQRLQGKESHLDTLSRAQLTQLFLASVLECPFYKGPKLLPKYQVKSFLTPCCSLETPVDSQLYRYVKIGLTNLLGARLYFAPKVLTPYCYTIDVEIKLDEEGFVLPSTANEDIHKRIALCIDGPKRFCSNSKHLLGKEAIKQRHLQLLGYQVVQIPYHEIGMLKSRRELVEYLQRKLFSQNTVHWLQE

[4] = biological target: T4, HeLa cell extract proteins (Homo sapiens, UniProt Q15293)
T4 construct: endogenous in cells; host or cells: HeLa cell extract
T4 sequence (Q15293 30-331): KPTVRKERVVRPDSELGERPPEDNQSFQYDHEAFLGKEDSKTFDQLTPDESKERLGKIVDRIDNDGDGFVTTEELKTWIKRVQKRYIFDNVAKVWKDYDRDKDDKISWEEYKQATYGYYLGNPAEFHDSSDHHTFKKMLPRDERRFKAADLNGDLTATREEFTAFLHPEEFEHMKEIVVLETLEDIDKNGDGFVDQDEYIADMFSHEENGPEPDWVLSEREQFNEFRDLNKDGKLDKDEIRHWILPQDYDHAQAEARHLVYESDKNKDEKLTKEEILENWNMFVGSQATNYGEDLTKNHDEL

[5] = biological target: T5, HeLa cell extract proteins (Homo sapiens, UniProt Q16531)
T5 construct: endogenous in cells; host or cells: HeLa cell extract

[6] = biological target: T6, HeLa cell extract proteins (Homo sapiens, UniProt Q9H857)
T6 construct: endogenous in cells; host or cells: HeLa cell extract
T6 sequence (Q9H857 1-520): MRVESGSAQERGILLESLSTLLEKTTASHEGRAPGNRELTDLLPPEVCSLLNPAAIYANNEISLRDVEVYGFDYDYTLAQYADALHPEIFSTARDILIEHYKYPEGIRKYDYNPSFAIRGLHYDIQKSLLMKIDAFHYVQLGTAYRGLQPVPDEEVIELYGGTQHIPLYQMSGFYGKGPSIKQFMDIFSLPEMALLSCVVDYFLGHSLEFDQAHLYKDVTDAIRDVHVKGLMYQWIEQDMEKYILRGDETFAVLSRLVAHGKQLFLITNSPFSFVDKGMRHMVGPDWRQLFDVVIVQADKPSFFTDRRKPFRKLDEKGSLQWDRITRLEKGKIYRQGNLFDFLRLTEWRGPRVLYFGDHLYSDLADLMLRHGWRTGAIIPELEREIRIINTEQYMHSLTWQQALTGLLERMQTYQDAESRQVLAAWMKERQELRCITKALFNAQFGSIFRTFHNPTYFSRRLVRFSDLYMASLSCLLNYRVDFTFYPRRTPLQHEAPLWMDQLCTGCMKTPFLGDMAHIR

[7] = biological target: T7, HeLa cell extract proteins (Homo sapiens, UniProt Q9NR28)
T7 construct: endogenous in cells; host or cells: HeLa cell extract
T7 sequence (Q9NR28 22-239): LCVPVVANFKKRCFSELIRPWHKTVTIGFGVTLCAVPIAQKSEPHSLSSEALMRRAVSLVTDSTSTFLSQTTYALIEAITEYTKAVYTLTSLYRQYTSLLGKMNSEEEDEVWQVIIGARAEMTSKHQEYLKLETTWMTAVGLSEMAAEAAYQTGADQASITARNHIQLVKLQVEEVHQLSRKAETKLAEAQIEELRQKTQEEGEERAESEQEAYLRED

[8] = biological target: T8, HeLa cell extract proteins (Homo sapiens, UniProt Q9Y233)
T8 construct: endogenous in cells; host or cells: HeLa cell extract

[9] = HeLa, protein DIABLO (DIABLO HOMOLOG, MIT[…])

T5 sequence (Q16531 whole entry): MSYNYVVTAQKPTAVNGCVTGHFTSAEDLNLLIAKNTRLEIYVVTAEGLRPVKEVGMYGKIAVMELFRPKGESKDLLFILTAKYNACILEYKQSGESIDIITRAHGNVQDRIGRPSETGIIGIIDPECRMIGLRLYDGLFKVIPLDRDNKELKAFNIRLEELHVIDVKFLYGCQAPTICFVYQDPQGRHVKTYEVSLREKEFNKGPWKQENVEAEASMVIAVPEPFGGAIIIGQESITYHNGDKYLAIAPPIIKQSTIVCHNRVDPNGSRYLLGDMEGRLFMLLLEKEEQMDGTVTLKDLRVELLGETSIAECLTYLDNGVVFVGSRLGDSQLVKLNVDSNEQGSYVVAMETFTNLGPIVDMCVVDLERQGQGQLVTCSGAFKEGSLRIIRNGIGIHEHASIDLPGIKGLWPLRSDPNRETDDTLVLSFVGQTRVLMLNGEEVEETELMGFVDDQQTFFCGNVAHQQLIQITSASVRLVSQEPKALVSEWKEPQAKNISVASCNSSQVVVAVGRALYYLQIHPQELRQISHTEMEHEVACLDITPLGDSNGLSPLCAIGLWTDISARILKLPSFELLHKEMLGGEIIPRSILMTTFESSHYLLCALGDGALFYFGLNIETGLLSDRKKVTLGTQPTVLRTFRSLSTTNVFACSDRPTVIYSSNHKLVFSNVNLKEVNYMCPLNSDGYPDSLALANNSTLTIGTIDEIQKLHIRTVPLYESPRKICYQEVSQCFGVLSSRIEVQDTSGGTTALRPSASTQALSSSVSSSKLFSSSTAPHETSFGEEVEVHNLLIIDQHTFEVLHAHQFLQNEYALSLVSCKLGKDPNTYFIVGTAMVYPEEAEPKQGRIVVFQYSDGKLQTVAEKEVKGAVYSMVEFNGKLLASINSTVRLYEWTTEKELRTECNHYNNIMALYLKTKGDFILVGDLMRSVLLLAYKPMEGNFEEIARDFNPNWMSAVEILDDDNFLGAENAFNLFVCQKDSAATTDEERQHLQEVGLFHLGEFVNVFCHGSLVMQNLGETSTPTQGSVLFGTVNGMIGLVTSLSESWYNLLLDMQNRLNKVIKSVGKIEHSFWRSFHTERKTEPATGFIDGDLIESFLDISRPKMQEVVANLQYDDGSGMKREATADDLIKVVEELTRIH
T8 sequence (Q9Y233 whole entry): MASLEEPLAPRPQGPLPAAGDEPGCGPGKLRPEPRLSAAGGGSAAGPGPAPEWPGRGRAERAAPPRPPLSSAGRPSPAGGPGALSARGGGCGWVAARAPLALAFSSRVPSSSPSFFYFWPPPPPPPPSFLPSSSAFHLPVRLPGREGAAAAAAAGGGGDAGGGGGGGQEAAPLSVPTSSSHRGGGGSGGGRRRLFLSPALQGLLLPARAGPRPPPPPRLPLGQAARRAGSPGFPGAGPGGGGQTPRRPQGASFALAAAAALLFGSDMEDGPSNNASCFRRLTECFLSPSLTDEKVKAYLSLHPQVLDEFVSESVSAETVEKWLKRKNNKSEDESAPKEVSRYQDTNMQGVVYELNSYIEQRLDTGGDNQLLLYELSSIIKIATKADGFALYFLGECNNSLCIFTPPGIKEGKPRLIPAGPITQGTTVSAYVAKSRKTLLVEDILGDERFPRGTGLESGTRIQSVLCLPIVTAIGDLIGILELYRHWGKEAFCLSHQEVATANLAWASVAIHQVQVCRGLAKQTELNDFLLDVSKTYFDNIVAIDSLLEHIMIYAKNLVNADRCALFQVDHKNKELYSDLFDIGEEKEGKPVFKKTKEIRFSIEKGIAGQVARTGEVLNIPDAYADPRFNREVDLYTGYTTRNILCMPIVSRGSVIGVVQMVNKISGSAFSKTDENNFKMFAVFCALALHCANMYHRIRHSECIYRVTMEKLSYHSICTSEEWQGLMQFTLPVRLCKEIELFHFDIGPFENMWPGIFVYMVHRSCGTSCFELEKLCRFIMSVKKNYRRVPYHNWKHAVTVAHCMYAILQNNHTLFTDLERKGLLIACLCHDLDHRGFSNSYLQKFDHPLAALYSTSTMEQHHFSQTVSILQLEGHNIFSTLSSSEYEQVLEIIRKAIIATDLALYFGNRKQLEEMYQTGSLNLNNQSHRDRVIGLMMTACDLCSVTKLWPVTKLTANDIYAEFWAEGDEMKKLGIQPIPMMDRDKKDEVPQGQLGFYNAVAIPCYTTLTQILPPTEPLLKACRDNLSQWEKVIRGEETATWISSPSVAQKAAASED

SMILES: CCCCCCOc1cccc(Cc2cnc(N)nc2N)c1 [compound 2]
- fold changes relative to vehicle control ([1]; protein CLIC1, HeLa): 2.13
- fold changes relative to vehicle control ([2]; protein GANAB, HeLa): 1.28
- fold changes relative to vehicle control ([3]; captured protein FASTKD3, HeLa): 0.94
- fold changes relative to vehicle control ([4]; captured protein RCN1, HeLa): 1.05
- fold changes relative to vehicle control ([5]; HeLa, protein DDB1): 1.05
- fold changes relative to vehicle control ([6]; protein NT5DC2, HeLa): 0.91
- fold changes relative to vehicle control ([7]; captured protein DIABLO, HeLa): 0.97
- fold changes relative to vehicle control ([8]; captured protein PDE10A, HeLa): 0.94

SMILES: NCCOCCOCC(=O)Nc1nc2ncc(CNc3ccc(C(=O)NC(CCC(=O)O)C(=O)O)cc3)nc2c(=O)[nH]1 (centres unmarked) [compound 6]
- fold changes relative to vehicle control ([1]; HeLa, protein CLIC1): 1.44
- fold changes relative to vehicle control ([2]; HeLa, protein GANAB): 1.1
- fold changes relative to vehicle control ([3]; HeLa, protein FASTKD3): 1.01
- fold changes relative to vehicle control ([4]; HeLa, protein RCN1): 1.11
- fold changes relative to vehicle control ([5]; HeLa, protein DDB1): 0.99
- fold changes relative to vehicle control ([6]; HeLa, captured protein NT5DC2): 0.96
- fold changes relative to vehicle control ([7]; HeLa, protein DIABLO (DIABLO HOMOLOG, MITOCHONDRIAL PRECURSOR)): 0.99
- fold changes relative to vehicle control ([8]; protein PDE10A, HeLa): 0.78

SMILES: CCCCCCOc1ccc(Cc2cnc(N)nc2N)cc1 [compound 1]
- fold changes relative to vehicle control ([1]; protein CLIC1, HeLa): 1.21
- fold changes relative to vehicle control ([2]; protein GANAB, HeLa): 1.08
- fold changes relative to vehicle control ([3]; captured protein FASTKD3, HeLa): 0.93
- fold changes relative to vehicle control ([4]; captured protein RCN1, HeLa): 0.9
- fold changes relative to vehicle control ([5]; HeLa, protein DDB1): 0.9
- fold changes relative to vehicle control ([6]; protein NT5DC2, HeLa): 1.05
- fold changes relative to vehicle control ([7]; captured protein DIABLO, HeLa): 1.09
- fold changes relative to vehicle control ([8]; captured protein PDE10A, HeLa): 0.96

SMILES: Nc1nc2c(c(=O)[nH]1)N(C=O)C(CNc1ccc(C(=O)N[C@@H](CCC(=O)O)C(=O)O)cc1)CN2 (some centres unmarked) [LEU, leucovorin]
- fold changes relative to vehicle control ([1]; HeLa, protein CLIC1): 1.09
- fold changes relative to vehicle control ([2]; HeLa, protein GANAB): 0.99
- fold changes relative to vehicle control ([3]; HeLa, protein FASTKD3): 1.02
- fold changes relative to vehicle control ([4]; HeLa, protein RCN1): 0.91
- fold changes relative to vehicle control ([5]; HeLa, protein DDB1): 0.95
- fold changes relative to vehicle control ([6]; HeLa, captured protein NT5DC2): 0.94
- fold changes relative to vehicle control [7, 9]: 1.06
- fold changes relative to vehicle control ([8]; protein PDE10A, HeLa): 1.01

SMILES: NCCCNc1ccc(C(=O)NC(CCC(=O)O)C(=O)O)cc1 (centres unmarked) [compound 7]
- fold changes relative to vehicle control ([1]; HeLa, protein CLIC1): 0.99
- fold changes relative to vehicle control ([2]; HeLa, protein GANAB): 0.97
- fold changes relative to vehicle control ([3]; HeLa, protein FASTKD3): 0.9
- fold changes relative to vehicle control ([4]; HeLa, protein RCN1): 1.02
- fold changes relative to vehicle control ([5]; HeLa, protein DDB1): 0.96
- fold changes relative to vehicle control ([6]; HeLa, captured protein NT5DC2): 0.97
- fold changes relative to vehicle control [7, 9]: 1.05
- fold changes relative to vehicle control ([8]; protein PDE10A, HeLa): 1

SMILES: Nc1nc2[nH]cc(CCc3ccc(C(=O)N[C@@H](CCC(=O)O)C(=O)O)cc3)c2c(=O)[nH]1 [PTX, pemetrexed]
- fold changes relative to vehicle control [1]: 1.26
- fold changes relative to vehicle control [2]: 1
- fold changes relative to vehicle control [3]: 0.86
- fold changes relative to vehicle control [4]: 1.02
- fold changes relative to vehicle control [5]: 0.9
- fold changes relative to vehicle control [6]: 0.91
- fold changes relative to vehicle control [7]: 1.01
- fold changes relative to vehicle control [8]: 0.66

SMILES: Nc1nc2cccc(-c3ccccc3)c2n1Cc1ccc(Cl)c(Cl)c1 [compound 3]
- fold changes relative to vehicle control ([1]; protein CLIC1, HeLa): 0.87
- fold changes relative to vehicle control ([2]; protein GANAB, HeLa): 0.94
- fold changes relative to vehicle control ([3]; captured protein FASTKD3, HeLa): 0.95
- fold changes relative to vehicle control ([4]; captured protein RCN1, HeLa): 0.89
- fold changes relative to vehicle control ([5]; HeLa, protein DDB1): 0.87
- fold changes relative to vehicle control ([6]; protein NT5DC2, HeLa): 1
- fold changes relative to vehicle control ([7]; captured protein DIABLO, HeLa): 1.01
- fold changes relative to vehicle control ([8]; captured protein PDE10A, HeLa): 0.99
